Experimental data taken from patent US12422427B2, “Compounds for treatment of diseases and methods of screening therefor” (Max-Planck-Gesellschaft zur Förderung der Wissenschaften …, priority 2018, dated 2025).

Key:
[1] = tested on: HeLa cells; test: 15N lipoamide uptake by HeLa cells measured by NMR; type: in vitro ADME
Procedure: The concentration of lipoamide relative to protein required for an effect on condensate liquidity in vitro was higher than the EC50 on cells, on the order of 100 μM lipoamide with 1 μM FUS (FIGS. 1D-1E, FIGS. 5A-5E). In cells, FUS concentrations are high for a protein (low μM)^41 and the cellular EC50 was on the order of 10 μM (FIG. 2A, FIG. 3D). We also saw inverse effects of lipoamide on FUS-containing condensates in vitro (more, larger condensates) and in cells (fewer stress granules). To reconcile this difference and to understand the relevance of the effects in vitro in cells, we wanted to know the actual concentrations of compounds in cells. In principle, isotopic labelling allows direct monitoring of isotopically-labelled compounds even in complex environment through appropriate spectroscopy. To use this approach, ^15N-labelled lipoamide (FIG. 7A) was synthesised.
Uptake of ^15N lipoamide by cells from the medium was quantified by NMR following incubation of lipoamide at 37° C. for 1 h either in the absence or presence of HeLa cells (FIG. 7B). Cellular uptake was determined by calculating the difference between medium incubated with cells or without cells for combinations of either R-(+) or (±)-lipoamide and either unstressed or stressed cells (FIG. 7C). For one sample, stressed cells with R-(+)-lipoamide, we confirmed that strong signal from the cell fraction was consistent with uptake of a large proportion of lipoamide (FIG. 7C). Both R-(+) and ±-lipoamide measurements indicated uptake of 35±11% (n=3 and 2, respectively) of the lipoamide present in the medium. No significant difference was observed either for uptake of R-(+) compared to (±)-lipoamide or stressed compared to unstressed cells (FIG. 7D).
For analysis of ^15N lipoamide uptake by cells HeLa cells expressing FUS GFP were grown in 6 well plates to 10^6 cells/well in DMEM supplemented with 10% FCS. To simultaneously stress and treat cells, the medium was replaced with 0.6 ml medium supplemented with potassium arsenate and 100 μM ^15N racemic or R-(+)-lipoamide for 1 h at 37° C. High concentrations of compound were used to maximise the signal. […] Wells were prepared for all combinations of no compound (1% DMSO control), ^15N […] or ^15N R-(+)-lipoamide, with or without potassium arsenate and with or without cells. ^1H detected ^15N edited ^1H sensitivity enhanced HSQ was used to quantify ^15N lipoamide concentration (see Supplementary Information). Solvent, pH and temperature sensitivity of the primary amide proton chemical shifts were determined using dummy samples assembled from the appropriate solvent and added compounds.
^1H detected ^15N edited ^1H sensitivity enhanced HSQC NMR (referred to here as (^15N) ^1H) spectra were acquired on a narrow bore Varian solution state spectrometer operating with a fixed field strength of 14.1 T, equipped with a room-temperature probe.
The free induction decay was recorded for an acquisition time of 0.0624 and a sweep with of 8 kHz recorded over 1000 and a recovery delays of 1 s. […] The J coupling between the amide protons and the ^15N in H2O samples was determined to be 96 Hz, and so the transfer times of 1/4 J in the INEPT portions of the pulse sequence were set to 2.6 ms. […]

[2] = tested on: KIN-19; type: in vivo, Caenorhabditis elegans; settings: 1.5 mM
Procedure: (§1) The effect of lipoic acid on stress granule protein aggregation in vivo was analysed using a C. elegans model for stress granule formation and aggregation. As previously described, fluorescent-tagged PAB-1 forms abundant stress granules and large solid aggregates during aging or upon chronic stress. RHO-1 and KIN-19 also aggregate during aging, but are not RNA binding or stress granule proteins. Three lines were used: Fluorescently tagged PAB-1 (DCD214: N2; uqIs24[pmyo-2::tagrfp::pab 1gene]), KIN-19 (CF3649: N2; muIs 209[pmyo-3::kin-19::tagrfp+ptph-1::GFP] and RHO-1 (DCD13: N2; uqIs9 [pmyo-2::rho-1::tagr fp+ptph-1::gfp]). Each were analysed as below, except DCD13 were maintained at 20° C.
(§2) The animals were exposed to lipoic acid in liquid culture in a 96 well plate starting from larval stage L4 in a total volume of 50 μl S-Complete per well (100 mM NaCl, 50 mM Potassium phosphate pH 6, 10 mM potassium citrate, 3 mM MgSO4, 3 mM CaCl2), 5 μg/mL cholesterol, 50 μM ethylenediaminetetraacetic acid (EDTA), 25 μM FeSO4, 10 μM MnCl2, 10 μM ZnSO4, 1 μM CuSO4) supplemented with heat-killed OP50 and 50 μg/ml carbenicillin. […] Toxicity was evaluated from the number of dead or aberrantly small-sized animals.
(§3) 48 h after switching the L4s from 20° C. to 25° C. […] After immobilization with 2 mM levamisole aggregation was scored using a fluorescent stereo microscope (Leica M165 FC, Plan Apo 2.0× objective). […]

[3] = tested on: RHO-1; test: Protein aggregation in C. elegans: RHO-1; type: in vivo, Caenorhabditis elegans; settings: 1.5 mM
Procedure: as §1, §2, §3

| Structure (SMILES) | uptake of the lipoamide present in the medium ([1]; 100 μM, 1 h, 37° C., stressed or unstressed HeLa cells) [%] | metabolism or chemical modification in cells ([1]; NMR signal from the cell sample) | KIN-19 aggregation [2] | RHO-1 aggregation [3] |
| --- | --- | --- | --- | --- |
| NC(=O)CCCCC1CCSS1 (racemic) [lipoamide, 5-(1,2-dithiolan-3-yl)pentanamide] | 35 | no evidence for metabolism or any other chemical modification |  |  |
| O=C(O)CCCCC1CCSS1 (racemic) [lipoic acid, 5-(1,2-dithiolan-3-yl)pentanoic acid] |  |  | mild decrease | No effect |
